In US11661426B2, “Imidazole-containing inhibitors of ALK2 kinase” (BioCryst Pharmaceuticals, Inc., priority 2017, dated 2023):
pIC50: −log10 of the molar value.

Target: ALK2 (Homo sapiens (Human), UniProt Q04771)
Experiment: ALK2 inhibition, LanthaScreen Eu Kinase Binding Assay (ThermoFisher Scientific / Life Technologies)
Details: read-out: Measured Ki (IC50) Value for Compounds: IC50
Procedure: Biochemical assays to measure the inhibitory effects of the compounds were performed by ThermoFisher Scientific (Life Technologies). ALK2 inhibition was tested using LanthaScreen™ Eu Kinase Binding Assay screening protocol.

Chain of ALK2 (Q04771 21-509): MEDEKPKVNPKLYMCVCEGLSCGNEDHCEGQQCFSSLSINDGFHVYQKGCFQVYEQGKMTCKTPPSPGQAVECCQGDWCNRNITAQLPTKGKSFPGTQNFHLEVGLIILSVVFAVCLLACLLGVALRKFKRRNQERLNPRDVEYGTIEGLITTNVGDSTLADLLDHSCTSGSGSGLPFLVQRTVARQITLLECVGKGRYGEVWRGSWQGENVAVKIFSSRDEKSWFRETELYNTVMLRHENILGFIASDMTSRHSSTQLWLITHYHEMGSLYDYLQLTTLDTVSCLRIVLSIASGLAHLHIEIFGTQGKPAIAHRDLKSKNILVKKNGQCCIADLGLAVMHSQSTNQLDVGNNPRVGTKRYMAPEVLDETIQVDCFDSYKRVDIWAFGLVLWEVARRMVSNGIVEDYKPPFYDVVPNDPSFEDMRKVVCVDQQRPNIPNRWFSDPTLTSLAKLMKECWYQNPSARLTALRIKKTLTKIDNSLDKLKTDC

SMILES | pIC50
COc1cc(-n2cnc(Nc3nc(N4CCC[C@H]4CO)nc4sc(CN5CCN(c6ccccn6)CC5)cc34)c2)cc(OC)c1OC [Compound 108b, (S)-(1-(6-((4-(pyridin-2-yl)piperazin-1-yl)methyl)-4-((1-(3,4,5-trimethoxyphenyl)-1H-imidazol-4-yl)amino)thieno[2,3-d]pyrimidin-2-yl)pyrrolidin-2-yl)methanol] | > 7.00
COc1cc(-n2cnc(Nc3nc(-c4cccc(C=O)c4)nc4sc(CO)cc34)c2)cc(OC)c1OC [Compound 109a, 3-(6-(hydroxymethyl)-4-((1-(3,4,5-trimethoxyphenyl)-1H-imidazol-4-yl)amino)thieno[2,3-d]pyrimidin-2-yl)benzaldehyde] | > 7.00
COc1cc(-n2cnc(Nc3nc(-c4cccc(C=O)c4)nn4cccc34)c2)cc(OC)c1OC [Compound 110a, 3-(4-((1-(3,4,5-trimethoxyphenyl)-1H-imidazol-4-yl)amino)pyrrolo[2,1-f][1,2,4]triazin-2-yl)benzaldehyde] | > 7.00
COc1cc(-n2cnc(Nc3nc(N4CCC[C@H]4CO)nn4c(CN5CCOCC5)ccc34)c2)cc(OC)c1OC [Compound 111b, (S)-(1-(7-(morpholinomethyl)-4-((1-(3,4,5-trimethoxyphenyl)-1H-imidazol-4-yl)amino)pyrrolo[2,1-f][1,2,4]triazin-2-yl)pyrrolidin-2-yl)methanol] | > 7.00
COc1cc(-n2cnc(Nc3nc(N4CCC[C@H]4CO)nn4c(CN5CCN(C)CC5)ccc34)c2)cc(OC)c1OC [Compound 112b, (S)-(1-(7-((4-methylpiperazin-1-yl)methyl)-4-((1-(3,4,5-trimethoxyphenyl)-1H-imidazol-4-yl)amino)pyrrolo[2,1-f][1,2,4]triazin-2-yl)pyrrolidin-2-yl)methanol] | > 7.00
COc1cc(-n2cnc(Nc3nc(N4CCC[C@H]4CO)nc4sc(CN5CCCCC5)cc34)c2)cc(OC)c1OC [Compound 113b, (S)-(1-(6-(piperidin-1-ylmethyl)-4-((1-(3,4,5-trimethoxyphenyl)-1H-imidazol-4-yl)amino)thieno[2,3-d]pyrimidin-2-yl)pyrrolidin-2-yl)methanol] | > 7.00
COCCN1CCN(Cc2ccc3c(Nc4cn(-c5cc(OC)c(OC)c(OC)c5)cn4)nc(N4CCC[C@H]4CO)nn23)CC1 [Compound 114b, (S)-(1-(7-((4-(2-methoxyethyl)piperazin-1-yl)methyl)-4-((1-(3,4,5-trimethoxyphenyl)-1H-imidazol-4-yl)amino)pyrrolo[2,1-f][1,2,4]triazin-2-yl)pyrrolidin-2-yl)methanol] | > 7.00
COc1cc(-n2cnc(Nc3nc(N4CCC[C@H]4CO)c4ccccc4n3)c2)cc(OC)c1OC [Compound 115b, (S)-(1-(2-((1-(3,4,5-trimethoxyphenyl)-1H-imidazol-4-yl)amino)quinazolin-4-yl)pyrrolidin-2-yl)methanol] | > 7.00
N#Cc1ccc(-n2cnc(Nc3nc(N4CCC[C@H]4CO)nn4cccc34)c2)cc1 [Compound 116c, (S)-4-(4-((2-(2-(hydroxymethyl)pyrrolidin-1-yl)pyrrolo[2,1-f][1,2,4]triazin-4-yl)amino)-1H-imidazol-1-yl)benzonitrile] | 6.00 to 7.00
COc1cc(-n2cnc(Nc3nc(N4CCC[C@H]4C(N)=O)nn4c(CN5CCCCC5)ccc34)c2)cc(OC)c1OC [Compound 117a, (S)-1-(7-(piperidin-1-ylmethyl)-4-((1-(3,4,5-trimethoxyphenyl)-1H-imidazol-4-yl)amino)pyrrolo[2,1-f][1,2,4]triazin-2-yl)pyrrolidine-2-carboxamide] | > 7.00
COc1cc(-n2cnc(Nc3nc(N4CCC[C@H]4C(N)=O)nn4c(CN5CCC[C@H]5C(N)=O)ccc34)c2)cc(OC)c1OC [Compound 118b, (S)-1-((2-((S)-2-carbamoylpyrrolidin-1-yl)-4-((1-(3,4,5-trimethoxyphenyl)-1H-imidazol-4-yl)amino)pyrrolo[2,1-f][1,2,4]triazin-7-yl)methyl)pyrrolidine-2-carboxamide] | > 7.00
N#Cc1cccc(-n2cnc(Nc3nc(N4CCC[C@H]4CO)nn4cccc34)c2)c1 [Compound 119c, (S)-3-(4-((2-(2-(hydroxymethyl)pyrrolidin-1-yl)pyrrolo[2,1-f][1,2,4]triazin-4-yl)amino)-1H-imidazol-1-yl)benzonitrile] | > 7.00
COc1cc(-n2cnc(Nc3nc(N4CCC[C@H]4CO)nn4c(CNCC5CC5)ccc34)c2)cc(OC)c1OC [Compound 120a, (S)-(1-(7-(((cyclopropylmethyl)amino)methyl)-4-((1-(3,4,5-trimethoxyphenyl)-1H-imidazol-4-yl)amino)pyrrolo[2,1-f][1,2,4]triazin-2-yl)pyrrolidin-2-yl)methanol] | > 7.00
COc1cc(-n2cnc(Nc3nc(N4CCC[C@H]4CO)nn4c(CN5CCN(C(=O)OC(C)(C)C)CC5)ccc34)c2)cc(OC)c1OC [Compound 121b, (S)-tert-butyl 4-((2-(2-(hydroxymethyl)pyrrolidin-1-yl)-4-((1-(3,4,5-trimethoxyphenyl)-1H-imidazol-4-yl)amino)pyrrolo[2,1-f][1,2,4]triazin-7-yl)methyl)piperazine-1-carboxylate] | > 7.00
COc1cc(-n2cnc(Nc3nc(N4CCC[C@H]4CO)nn4c(CN5CCNCC5)ccc34)c2)cc(OC)c1OC [Compound 122a, (S)-(1-(7-(piperazin-1-ylmethyl)-4-((1-(3,4,5-trimethoxyphenyl)-1H-imidazol-4-yl)amino)pyrrolo[2,1-f][1,2,4]triazin-2-yl)pyrrolidin-2-yl)methanol] | > 7.00
CC(=O)c1cc(-n2cnc(Nc3nc(N4CCC[C@H]4CO)nn4cccc34)c2)ccc1O [Compound 123c, (S)-1-(2-hydroxy-5-(4-((2-(2-(hydroxymethyl)pyrrolidin-1-yl)pyrrolo[2,1-f][1,2,4]triazin-4-yl)amino)-1H-imidazol-1-yl)phenyl)ethanone] | > 7.00
COc1cc(C(N)=O)cc(-n2cnc(Nc3nc(N4CCC[C@H]4CO)nn4cccc34)c2)c1 [Compound 125c, (S)-3-(4-((2-(2-(hydroxymethyl)pyrrolidin-1-yl)pyrrolo[2,1-f][1,2,4]triazin-4-yl)amino)-1H-imidazol-1-yl)-5-methoxybenzamide] | > 7.00
COc1cc(-n2cnc(Nc3nc(N4CCC[C@H]4C(N)=O)nn4c(C(=O)N5CCCCC5)ccc34)c2)cc(OC)c1OC [Compound 126c, (S)-1-(7-(piperidine-1-carbonyl)-4-((1-(3,4,5-trimethoxyphenyl)-1H-imidazol-4-yl)amino)pyrrolo[2,1-f][1,2,4]triazin-2-yl)pyrrolidine-2-carboxamide] | > 7.00
N#Cc1cc(O)cc(-n2cnc(Nc3nc(N4CCC[C@H]4CO)nn4cccc34)c2)c1 [Compound 127b, (S)-3-hydroxy-5-(4-((2-(2-(hydroxymethyl)pyrrolidin-1-yl)pyrrolo[2,1-f][1,2,4]triazin-4-yl)amino)-1H-imidazol-1-yl)benzonitrile] | > 7.00
OC[C@@H]1CCCN1c1nc(Nc2cn(-c3ccc(F)c(F)c3)cn2)c2cccn2n1 [Compound 128c, (S)-(1-(4-((1-(3,4-difluorophenyl)-1H-imidazol-4-yl)amino)pyrrolo[2,1-f][1,2,4]triazin-2-yl)pyrrolidin-2-yl)methanol] | > 7.00
COc1cc(-n2cnc(Nc3nc(N4CCC[C@H]4CO)nn4c(CNC(C)C)ccc34)c2)cc(OC)c1OC [Compound 129b, (S)-(1-(7-((isopropylamino)methyl)-4-((1-(3,4,5-trimethoxyphenyl)-1H-imidazol-4-yl)amino)pyrrolo[2,1-f][1,2,4]triazin-2-yl)pyrrolidin-2-yl)methanol] | > 7.00
COc1cc(-n2cnc(Nc3nc(N4CCC[C@H]4C(N)=O)nc4ccccc34)c2)cc(OC)c1OC [Compound 130a, (S)-1-(4-((1-(3,4,5-trimethoxyphenyl)-1H-imidazol-4-yl)amino)quinazolin-2-yl)pyrrolidine-2-carboxamide] | > 7.00
COc1cc(OC)cc(-n2cnc(Nc3nc(N4CCC[C@H]4C(N)=O)nn4cccc34)c2)c1 [Compound 131a, (S)-1-(4-((1-(3,5-dimethoxyphenyl)-1H-imidazol-4-yl)amino)pyrrolo[2,1-f][1,2,4]triazin-2-yl)pyrrolidine-2-carboxamide] | > 7.00
COc1cc(-n2cnc(Nc3nc(N4CCC[C@H]4C(N)=O)c4ccsc4n3)c2)cc(OC)c1OC [Compound 132b, (S)-1-(2-((1-(3,4,5-trimethoxyphenyl)-1H-imidazol-4-yl)amino)thieno[2,3-d]pyrimidin-4-yl)pyrrolidine-2-carboxamide] | > 7.00
COc1cc(-n2cnc(Nc3nc(N4CCC[C@H]4CO)c4ccsc4n3)c2)cc(OC)c1OC [Compound 133b, (S)-(1-(2-((1-(3,4,5-trimethoxyphenyl)-1H-imidazol-4-yl)amino)thieno[2,3-d]pyrimidin-4-yl)pyrrolidin-2-yl)methanol] | > 7.00
COc1cc(-n2cnc(Nc3nc(-c4cccc(CO)c4)nn4cccc34)c2)cc(OC)c1OC [Compound 134a, (3-(4-((1-(3,4,5-trimethoxyphenyl)-1H-imidazol-4-yl)amino)pyrrolo[2,1-f][1,2,4]triazin-2-yl)phenyl)methanol] | > 7.00
COc1cc(-n2cnc(Nc3nc(-c4ccccc4C(N)=O)nn4cccc34)c2)cc(OC)c1OC [Compound 135a, 2-(4-((1-(3,4,5-trimethoxyphenyl)-1H-imidazol-4-yl)amino)pyrrolo[2,1-f][1,2,4]triazin-2-yl)benzamide] | > 7.00
COc1cc(-n2cnc(Nc3nc(-c4cccc(C(N)=O)c4)nn4cccc34)c2)cc(OC)c1OC [Compound 136a, 3-(4-((1-(3,4,5-trimethoxyphenyl)-1H-imidazol-4-yl)amino)pyrrolo[2,1-f][1,2,4]triazin-2-yl)benzamide] | > 7.00
COc1cc(-n2cnc(Nc3nc(-c4ccccc4CO)nn4cccc34)c2)cc(OC)c1OC [Compound 137a, (2-(4-((1-(3,4,5-trimethoxyphenyl)-1H-imidazol-4-yl)amino)pyrrolo[2,1-f][1,2,4]triazin-2-yl)phenyl)methanol] | > 7.00
